The values that follow are results of earlier work, collected in patent US20100120907A1, “DERIVATIVES OF AMYRIS ALCOHOLS AND EUDESMOL FOR TREATING COLD SORES AND HERPES” (priority 2007, published 2010).

Series [1] has as its target omega-agatoxin IVA-sensitive (P/Q-type) Ca^2+ channel (Rattus norvegicus, UniProt P54282).
The subject of the next series is neurogenic inflammation. To be noted: following electrical stimulation of rat trigeminal ganglion.
The next series has as its system angiogenesis. To be noted: mice.
In series [2] the test system is human umbilical vein endothelial cells (HUVEC).
Series [3] concerns extracellular signal-regulated kinase (ERK) ½. To be noted: 100 microM.
Series [4] concerns the target nicotinic ACh receptor channel (Homo sapiens, UniProt P02708+P11230+Q04844+Q07001).
The next series concerns Na^+, K(+)-ATPase. To be noted: among the various kinds of phosphatases examined.
Series [5] has as its system porcine brain microvascular endothelial cells. To be noted: 50-100 microM.
Another series deals with cold sores. To be noted: topical cream.
The test system of series [6] is ornithine decarboxylase (ODC). To be noted: mice.
Another series has as its system skin papillomas. To be noted: DMBA-initiated, TPA-promoted, mice.

Chain of nicotinic ACh receptor channel (P02708 21-457): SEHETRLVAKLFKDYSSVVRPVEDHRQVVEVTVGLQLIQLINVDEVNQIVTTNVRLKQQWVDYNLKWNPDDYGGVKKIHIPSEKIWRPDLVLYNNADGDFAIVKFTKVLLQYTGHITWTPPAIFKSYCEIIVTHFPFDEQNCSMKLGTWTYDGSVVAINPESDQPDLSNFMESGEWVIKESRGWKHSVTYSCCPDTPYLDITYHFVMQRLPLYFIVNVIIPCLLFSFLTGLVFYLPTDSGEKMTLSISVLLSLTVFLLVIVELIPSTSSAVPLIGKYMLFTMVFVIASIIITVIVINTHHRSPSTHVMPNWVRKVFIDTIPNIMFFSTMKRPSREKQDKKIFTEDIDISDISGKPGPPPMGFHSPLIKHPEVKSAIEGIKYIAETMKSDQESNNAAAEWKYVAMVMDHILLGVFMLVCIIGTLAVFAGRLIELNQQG
Chain of nicotinic ACh receptor channel (P11230 24-501): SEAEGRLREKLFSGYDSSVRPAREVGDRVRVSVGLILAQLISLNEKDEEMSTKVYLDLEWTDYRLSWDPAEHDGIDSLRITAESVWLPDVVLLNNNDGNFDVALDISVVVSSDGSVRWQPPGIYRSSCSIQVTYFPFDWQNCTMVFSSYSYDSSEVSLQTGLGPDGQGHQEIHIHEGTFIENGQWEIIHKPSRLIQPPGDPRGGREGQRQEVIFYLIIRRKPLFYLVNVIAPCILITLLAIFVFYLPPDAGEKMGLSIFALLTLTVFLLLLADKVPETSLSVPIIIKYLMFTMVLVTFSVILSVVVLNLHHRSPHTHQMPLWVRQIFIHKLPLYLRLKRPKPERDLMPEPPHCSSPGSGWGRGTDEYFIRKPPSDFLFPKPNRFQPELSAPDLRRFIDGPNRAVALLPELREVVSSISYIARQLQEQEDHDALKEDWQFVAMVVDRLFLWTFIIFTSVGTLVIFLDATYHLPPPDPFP
Chain of nicotinic ACh receptor channel (Q07001 22-517): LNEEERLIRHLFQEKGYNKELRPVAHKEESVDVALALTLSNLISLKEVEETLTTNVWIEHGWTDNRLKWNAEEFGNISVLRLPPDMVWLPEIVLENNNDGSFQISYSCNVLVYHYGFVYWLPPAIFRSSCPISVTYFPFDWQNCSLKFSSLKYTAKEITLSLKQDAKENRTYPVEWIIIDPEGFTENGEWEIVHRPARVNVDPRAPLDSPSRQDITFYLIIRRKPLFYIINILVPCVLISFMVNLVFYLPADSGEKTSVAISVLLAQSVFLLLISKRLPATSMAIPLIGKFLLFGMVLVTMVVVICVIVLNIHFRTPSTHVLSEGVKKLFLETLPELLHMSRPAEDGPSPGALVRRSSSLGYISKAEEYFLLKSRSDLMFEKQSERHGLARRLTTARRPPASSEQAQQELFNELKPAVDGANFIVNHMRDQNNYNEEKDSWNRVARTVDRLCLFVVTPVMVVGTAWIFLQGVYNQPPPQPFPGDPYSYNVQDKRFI
Chain of nicotinic ACh receptor channel (Q04844 21-493): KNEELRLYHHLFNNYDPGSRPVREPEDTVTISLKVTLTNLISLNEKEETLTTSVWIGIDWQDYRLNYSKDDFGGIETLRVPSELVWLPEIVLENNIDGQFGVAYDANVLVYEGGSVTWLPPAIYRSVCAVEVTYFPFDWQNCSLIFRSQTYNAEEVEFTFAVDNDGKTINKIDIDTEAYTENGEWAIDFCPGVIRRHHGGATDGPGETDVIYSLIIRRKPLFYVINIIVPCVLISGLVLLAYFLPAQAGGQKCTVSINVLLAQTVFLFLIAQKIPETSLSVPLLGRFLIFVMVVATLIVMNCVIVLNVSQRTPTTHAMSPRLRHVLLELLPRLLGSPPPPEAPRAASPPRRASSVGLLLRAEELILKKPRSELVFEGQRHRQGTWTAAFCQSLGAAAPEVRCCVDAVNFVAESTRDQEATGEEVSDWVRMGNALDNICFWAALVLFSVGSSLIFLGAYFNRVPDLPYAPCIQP
Chain of omega-agatoxin IVA-sensitive (P/Q-type) Ca^2+ channel (P54282 whole entry): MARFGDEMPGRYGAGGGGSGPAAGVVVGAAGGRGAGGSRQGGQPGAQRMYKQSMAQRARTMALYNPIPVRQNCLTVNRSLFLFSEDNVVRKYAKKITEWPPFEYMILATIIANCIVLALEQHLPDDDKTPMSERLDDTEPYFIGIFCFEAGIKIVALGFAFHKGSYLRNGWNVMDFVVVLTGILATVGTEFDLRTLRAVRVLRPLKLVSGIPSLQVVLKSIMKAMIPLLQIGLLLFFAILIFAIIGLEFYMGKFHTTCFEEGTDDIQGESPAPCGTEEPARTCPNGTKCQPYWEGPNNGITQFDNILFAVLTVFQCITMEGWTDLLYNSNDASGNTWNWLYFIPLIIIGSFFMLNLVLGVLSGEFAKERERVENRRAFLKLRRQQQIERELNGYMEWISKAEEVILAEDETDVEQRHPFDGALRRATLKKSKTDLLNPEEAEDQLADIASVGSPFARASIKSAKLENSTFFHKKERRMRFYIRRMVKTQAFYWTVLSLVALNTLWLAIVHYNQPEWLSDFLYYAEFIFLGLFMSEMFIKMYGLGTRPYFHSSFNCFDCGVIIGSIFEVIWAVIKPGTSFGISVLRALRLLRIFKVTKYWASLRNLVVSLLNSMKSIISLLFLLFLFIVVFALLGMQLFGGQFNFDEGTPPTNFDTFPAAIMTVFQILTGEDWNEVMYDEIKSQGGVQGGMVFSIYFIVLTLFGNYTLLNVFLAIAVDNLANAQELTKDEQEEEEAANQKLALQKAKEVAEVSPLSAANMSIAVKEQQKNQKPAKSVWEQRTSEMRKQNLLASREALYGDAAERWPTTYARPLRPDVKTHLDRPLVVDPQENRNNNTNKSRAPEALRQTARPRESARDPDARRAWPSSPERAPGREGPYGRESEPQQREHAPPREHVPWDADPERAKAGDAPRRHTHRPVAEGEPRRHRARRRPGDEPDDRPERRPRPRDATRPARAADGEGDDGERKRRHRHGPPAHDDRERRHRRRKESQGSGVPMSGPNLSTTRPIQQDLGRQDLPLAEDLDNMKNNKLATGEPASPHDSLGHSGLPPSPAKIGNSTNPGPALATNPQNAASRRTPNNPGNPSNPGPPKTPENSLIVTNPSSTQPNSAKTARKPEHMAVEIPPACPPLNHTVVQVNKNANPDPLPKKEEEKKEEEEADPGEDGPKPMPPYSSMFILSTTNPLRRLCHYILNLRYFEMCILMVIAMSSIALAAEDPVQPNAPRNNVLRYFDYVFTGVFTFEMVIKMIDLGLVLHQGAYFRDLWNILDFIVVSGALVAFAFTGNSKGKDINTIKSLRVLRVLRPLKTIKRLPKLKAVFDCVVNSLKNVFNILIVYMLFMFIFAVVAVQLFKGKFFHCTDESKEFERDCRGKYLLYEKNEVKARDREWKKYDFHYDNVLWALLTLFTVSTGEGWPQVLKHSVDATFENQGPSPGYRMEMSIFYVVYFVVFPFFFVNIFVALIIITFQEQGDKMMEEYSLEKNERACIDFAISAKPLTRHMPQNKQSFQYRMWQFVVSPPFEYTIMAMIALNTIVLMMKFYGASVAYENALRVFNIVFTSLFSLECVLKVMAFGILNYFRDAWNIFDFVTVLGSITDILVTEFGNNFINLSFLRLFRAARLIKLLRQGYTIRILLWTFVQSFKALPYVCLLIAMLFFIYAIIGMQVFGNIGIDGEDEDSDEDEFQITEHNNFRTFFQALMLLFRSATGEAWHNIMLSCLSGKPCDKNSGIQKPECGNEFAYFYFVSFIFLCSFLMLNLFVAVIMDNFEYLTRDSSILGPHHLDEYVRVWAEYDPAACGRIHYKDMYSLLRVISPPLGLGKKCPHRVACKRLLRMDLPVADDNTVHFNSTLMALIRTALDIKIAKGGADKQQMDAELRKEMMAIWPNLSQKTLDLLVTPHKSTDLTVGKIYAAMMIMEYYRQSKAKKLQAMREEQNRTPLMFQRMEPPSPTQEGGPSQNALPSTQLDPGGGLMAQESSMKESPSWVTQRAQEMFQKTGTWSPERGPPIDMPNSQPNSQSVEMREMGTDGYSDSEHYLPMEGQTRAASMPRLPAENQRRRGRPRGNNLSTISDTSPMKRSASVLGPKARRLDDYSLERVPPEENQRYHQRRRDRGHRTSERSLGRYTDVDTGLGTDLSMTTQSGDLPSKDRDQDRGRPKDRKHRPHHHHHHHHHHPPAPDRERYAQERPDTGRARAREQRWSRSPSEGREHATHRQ

In the case of `CC1=CCC[C@]2(C)CC[C@@H](C(C)(C)O)C[C@@H]12` [α-eudesmol], in series [1], the “inhibition of P/Q-type Ca2+ channel” value is recorded as “potently inhibits”. Also, the “inhibition of neurogenic inflammation” value in the series on neurogenic inflammation is given as “potently inhibits”.
Consider `C=C1CCC[C@]2(C)CC[C@@H](C(C)(C)O)C[C@@H]12` [β-eudesmol], for which, in the series on angiogenesis, the “angiogenesis in subcutaneously implanted Matrigel plugs and in adjuvant-induced granuloma” value is listed as “significantly inhibited”. In series [2], the “HUVEC migration stimulated by bFGF” value is “inhibited” and the “tube formation by HUVEC in Matrigel” value is given as “inhibited”. For the same molecule, the proliferation entry in [2] (50-100 microM) is given as “inhibited”. Besides, the neurite extension entry in the series with PC-12 cells (100 and 150 μM) is recorded as “significantly induced neurite extension”. Also, the “[3H]thymidine incorporation” value in the series with PC-12 cells (at the highest concentration (150 μM)) is “suppression”. In series [3], the “phosphorylation of ERK ½ induced by bFGF or vascular endothelial growth factor” value is listed as “blocked”. Besides, in series [4], the “block of nicotinic ACh receptor channel” value is “blocked the nicotinic ACh receptor channel in both the open and closed conformations”; the “desensitization of the nicotinic ACh receptor” value was “accelerated the desensitization”. Besides, the “inhibition of Na+,K+-ATPase activity” value in the series on Na^+, K(+)-ATPase is listed as “most strongly”. Further, in series [5], the proliferation entry is on record as “inhibited”.
As for `Nc1nc2c(ncn2COCCO)c(=O)[nH]1` [Acyclovir], the “reduction of healing time / duration of cold sores” value in the series with cold sores was “up to ½”.
With santalol, the “decrease of TPA-induced ODC activity” value in series [6] was 70%. Moreover, in the series with skin papillomas, the “decrease of papilloma incidence” value is listed as 67% and the “decrease of papilloma multiplicity” value is reported as 96%.
